Experimental data: ChEMBL document CHEMBL5303573, “Mapping human microbiome drug metabolism by gut bacteria and their genes” (Nature, 2019)

Assay: The drug is tested on Bacteroides sp. WH2 strain: WH2 for biotransformation. The drug concentrations were measured before and after a 12-h incubation by liquid-chromatography-coupled mass spectrometry (LC–MS)
Settings: bacteroides sp. wh2, 12 h, 2 µM

Structure (SMILES)	Bacterial Biotransformation
CC(O)(CS(=O)(=O)c1ccc(F)cc1)C(=O)Nc1ccc(C#N)c(C(F)(F)F)c1 (centres undefined) [BICALUTAMIDE]	Compound NOT metabolized
N#Cc1ccc2c(c1)N(CCCN1CCC(O)CC1)c1ccccc1S2 [PERICIAZINE]	Compound NOT metabolized
O=C(O)CCC(=O)O.O=C(O[C@H]1CN2CCC1CC2)N1CCc2ccccc2[C@@H]1c1ccccc1 [SOLIFENACIN SUCCINATE]	Compound NOT metabolized

Assay: The drug is tested on Clostridium asparagiforme strain: DSM15981 for biotransformation. The drug concentrations were measured before and after a 12-h incubation by liquid-chromatography-coupled mass spectrometry (LC–MS)
Type: ADME
Design: dose 2 uM, timepoint 0 vs 12 hours
Settings: enterocloster asparagiformis, 2 µM

Structure (SMILES)	Bacterial Biotransformation
CC(O)(CS(=O)(=O)c1ccc(F)cc1)C(=O)Nc1ccc(C#N)c(C(F)(F)F)c1 (centres undefined) [BICALUTAMIDE]	Compound NOT metabolized
N#Cc1ccc2c(c1)N(CCCN1CCC(O)CC1)c1ccccc1S2 [PERICIAZINE]	Compound NOT metabolized
O=C(O)CCC(=O)O.O=C(O[C@H]1CN2CCC1CC2)N1CCc2ccccc2[C@@H]1c1ccccc1 [SOLIFENACIN SUCCINATE]	Compound NOT metabolized

Settings: limosilactobacillus reuteri cf48-3a, 12 h, 2 µM
Description: The drug is tested on Lactobacillus reuteri CF48-3A strain: BEI HM-102 for biotransformation. The drug concentrations were measured before and after a 12-h incubation by liquid-chromatography-coupled mass spectrometry (LC–MS)

Structure (SMILES)	Bacterial Biotransformation
CC(O)(CS(=O)(=O)c1ccc(F)cc1)C(=O)Nc1ccc(C#N)c(C(F)(F)F)c1 (centres undefined) [BICALUTAMIDE]	Compound NOT metabolized
O=C(O)CCC(=O)O.O=C(O[C@H]1CN2CCC1CC2)N1CCc2ccccc2[C@@H]1c1ccccc1 [SOLIFENACIN SUCCINATE]	Compound NOT metabolized

Assay: The drug is tested on Bifidobacterium longum subsp. Infantis strain: CCUG52486 for biotransformation. The drug concentrations were measured before and after a 12-h incubation by liquid-chromatography-coupled mass spectrometry (LC–MS)
Settings: 2 µM

Structure (SMILES)	Bacterial Biotransformation
CC(O)(CS(=O)(=O)c1ccc(F)cc1)C(=O)Nc1ccc(C#N)c(C(F)(F)F)c1 (centres undefined) [BICALUTAMIDE]	Compound NOT metabolized
N#Cc1ccc2c(c1)N(CCCN1CCC(O)CC1)c1ccccc1S2 [PERICIAZINE]	Compound NOT metabolized
O=C(O)CCC(=O)O.O=C(O[C@H]1CN2CCC1CC2)N1CCc2ccccc2[C@@H]1c1ccccc1 [SOLIFENACIN SUCCINATE]	Compound NOT metabolized

Assay: The drug is tested on Bacteroides coprophilus strain: DSM18228 for biotransformation. The drug concentrations were measured before and after a 12-h incubation by liquid-chromatography-coupled mass spectrometry (LC–MS)
Settings: 2 µM

Structure (SMILES)	Bacterial Biotransformation
CC(O)(CS(=O)(=O)c1ccc(F)cc1)C(=O)Nc1ccc(C#N)c(C(F)(F)F)c1 (centres undefined) [BICALUTAMIDE]	Compound NOT metabolized
O=C(O)CCC(=O)O.O=C(O[C@H]1CN2CCC1CC2)N1CCc2ccccc2[C@@H]1c1ccccc1 [SOLIFENACIN SUCCINATE]	Compound NOT metabolized

Assay: The drug is tested on Bacteroides pectinophilus strain: ATCC43243 for biotransformation. The drug concentrations were measured before and after a 12-h incubation by liquid-chromatography-coupled mass spectrometry (LC–MS)
Settings: 2 µM

Structure (SMILES)	Bacterial Biotransformation
CC(O)(CS(=O)(=O)c1ccc(F)cc1)C(=O)Nc1ccc(C#N)c(C(F)(F)F)c1 (centres undefined) [BICALUTAMIDE]	Compound NOT metabolized
N#Cc1ccc2c(c1)N(CCCN1CCC(O)CC1)c1ccccc1S2 [PERICIAZINE]	Compound NOT metabolized
O=C(O)CCC(=O)O.O=C(O[C@H]1CN2CCC1CC2)N1CCc2ccccc2[C@@H]1c1ccccc1 [SOLIFENACIN SUCCINATE]	Compound NOT metabolized

Settings: bacteroides intestinalis, 12 h, 2 µM
Description: The drug is tested on Bacteroides intestinalis strain: DSM17393 for biotransformation. The drug concentrations were measured before and after a 12-h incubation by liquid-chromatography-coupled mass spectrometry (LC–MS)

Structure (SMILES)	Bacterial Biotransformation
CC(O)(CS(=O)(=O)c1ccc(F)cc1)C(=O)Nc1ccc(C#N)c(C(F)(F)F)c1 (centres undefined) [BICALUTAMIDE]	Compound NOT metabolized
N#Cc1ccc2c(c1)N(CCCN1CCC(O)CC1)c1ccccc1S2 [PERICIAZINE]	Compound NOT metabolized
O=C(O)CCC(=O)O.O=C(O[C@H]1CN2CCC1CC2)N1CCc2ccccc2[C@@H]1c1ccccc1 [SOLIFENACIN SUCCINATE]	Compound NOT metabolized

Assay: The drug is tested on Parabacteroides merdae strain: ATCC43184 for biotransformation. The drug concentrations were measured before and after a 12-h incubation by liquid-chromatography-coupled mass spectrometry (LC–MS)
Settings: 2 µM

Structure (SMILES)	Bacterial Biotransformation
CC(O)(CS(=O)(=O)c1ccc(F)cc1)C(=O)Nc1ccc(C#N)c(C(F)(F)F)c1 (centres undefined) [BICALUTAMIDE]	Compound NOT metabolized
O=C(O)CCC(=O)O.O=C(O[C@H]1CN2CCC1CC2)N1CCc2ccccc2[C@@H]1c1ccccc1 [SOLIFENACIN SUCCINATE]	Compound NOT metabolized

Assay: The drug is tested on Collinsella aerofaciens strain: ATCC25986 for biotransformation. The drug concentrations were measured before and after a 12-h incubation by liquid-chromatography-coupled mass spectrometry (LC–MS)
Settings: 2 µM

Structure (SMILES)	Bacterial Biotransformation
CC(O)(CS(=O)(=O)c1ccc(F)cc1)C(=O)Nc1ccc(C#N)c(C(F)(F)F)c1 (centres undefined) [BICALUTAMIDE]	Compound NOT metabolized
N#Cc1ccc2c(c1)N(CCCN1CCC(O)CC1)c1ccccc1S2 [PERICIAZINE]	Compound NOT metabolized
O=C(O)CCC(=O)O.O=C(O[C@H]1CN2CCC1CC2)N1CCc2ccccc2[C@@H]1c1ccccc1 [SOLIFENACIN SUCCINATE]	Compound NOT metabolized

Assay: The drug is tested on Ruminococcus gnavus strain: ATCC29149 for biotransformation. The drug concentrations were measured before and after a 12-h incubation by liquid-chromatography-coupled mass spectrometry (LC–MS)
Settings: mediterraneibacter gnavus, 2 µM

Structure (SMILES)	Bacterial Biotransformation
CC(O)(CS(=O)(=O)c1ccc(F)cc1)C(=O)Nc1ccc(C#N)c(C(F)(F)F)c1 (centres undefined) [BICALUTAMIDE]	Compound NOT metabolized
N#Cc1ccc2c(c1)N(CCCN1CCC(O)CC1)c1ccccc1S2 [PERICIAZINE]	Compound NOT metabolized
O=C(O)CCC(=O)O.O=C(O[C@H]1CN2CCC1CC2)N1CCc2ccccc2[C@@H]1c1ccccc1 [SOLIFENACIN SUCCINATE]	Compound NOT metabolized

Settings: bacteroides stercoris, 12 h, 2 µM
Description: The drug is tested on Bacteroides stercoris strain: ATCC43183 for biotransformation. The drug concentrations were measured before and after a 12-h incubation by liquid-chromatography-coupled mass spectrometry (LC–MS)

Structure (SMILES)	Bacterial Biotransformation
CC(O)(CS(=O)(=O)c1ccc(F)cc1)C(=O)Nc1ccc(C#N)c(C(F)(F)F)c1 (centres undefined) [BICALUTAMIDE]	Compound NOT metabolized
N#Cc1ccc2c(c1)N(CCCN1CCC(O)CC1)c1ccccc1S2 [PERICIAZINE]	Compound NOT metabolized
O=C(O)CCC(=O)O.O=C(O[C@H]1CN2CCC1CC2)N1CCc2ccccc2[C@@H]1c1ccccc1 [SOLIFENACIN SUCCINATE]	Compound NOT metabolized

Assay: The drug is tested on Edwardsiella tarda strain: ATCC23685 for biotransformation. The drug concentrations were measured before and after a 12-h incubation by liquid-chromatography-coupled mass spectrometry (LC–MS)
Settings: 2 µM

Structure (SMILES)	Bacterial Biotransformation
CC(O)(CS(=O)(=O)c1ccc(F)cc1)C(=O)Nc1ccc(C#N)c(C(F)(F)F)c1 (centres undefined) [BICALUTAMIDE]	Compound NOT metabolized
N#Cc1ccc2c(c1)N(CCCN1CCC(O)CC1)c1ccccc1S2 [PERICIAZINE]	Compound NOT metabolized
O=C(O)CCC(=O)O.O=C(O[C@H]1CN2CCC1CC2)N1CCc2ccccc2[C@@H]1c1ccccc1 [SOLIFENACIN SUCCINATE]	Compound NOT metabolized

Assay: The drug is tested on Providencia stuartii strain: ATCC25827 for biotransformation. The drug concentrations were measured before and after a 12-h incubation by liquid-chromatography-coupled mass spectrometry (LC–MS)
Settings: 2 µM

Structure (SMILES)	Bacterial Biotransformation
CC(O)(CS(=O)(=O)c1ccc(F)cc1)C(=O)Nc1ccc(C#N)c(C(F)(F)F)c1 (centres undefined) [BICALUTAMIDE]	Compound NOT metabolized
O=C(O)CCC(=O)O.O=C(O[C@H]1CN2CCC1CC2)N1CCc2ccccc2[C@@H]1c1ccccc1 [SOLIFENACIN SUCCINATE]	Compound NOT metabolized

Assay: The drug is tested on Anaerococcus hydrogenalis strain: DSM7454 for biotransformation. The drug concentrations were measured before and after a 12-h incubation by liquid-chromatography-coupled mass spectrometry (LC–MS)
Settings: 2 µM

Structure (SMILES)	Bacterial Biotransformation
CC(O)(CS(=O)(=O)c1ccc(F)cc1)C(=O)Nc1ccc(C#N)c(C(F)(F)F)c1 (centres undefined) [BICALUTAMIDE]	Compound NOT metabolized
N#Cc1ccc2c(c1)N(CCCN1CCC(O)CC1)c1ccccc1S2 [PERICIAZINE]	Compound NOT metabolized
O=C(O)CCC(=O)O.O=C(O[C@H]1CN2CCC1CC2)N1CCc2ccccc2[C@@H]1c1ccccc1 [SOLIFENACIN SUCCINATE]	Compound NOT metabolized

Settings: enterocloster bolteae, 12 h, 2 µM
Description: The drug is tested on Clostridium bolteae strain: ATCCBAA-613 for biotransformation. The drug concentrations were measured before and after a 12-h incubation by liquid-chromatography-coupled mass spectrometry (LC–MS)

Structure (SMILES)	Bacterial Biotransformation
CC(O)(CS(=O)(=O)c1ccc(F)cc1)C(=O)Nc1ccc(C#N)c(C(F)(F)F)c1 (centres undefined) [BICALUTAMIDE]	Compound NOT metabolized
N#Cc1ccc2c(c1)N(CCCN1CCC(O)CC1)c1ccccc1S2 [PERICIAZINE]	Compound NOT metabolized
O=C(O)CCC(=O)O.O=C(O[C@H]1CN2CCC1CC2)N1CCc2ccccc2[C@@H]1c1ccccc1 [SOLIFENACIN SUCCINATE]	Compound NOT metabolized

Settings: bacteroides thetaiotaomicron, 12 h, 2 µM
Description: The drug is tested on Bacteroides thetaiotaomicron strain: 7330 for biotransformation. The drug concentrations were measured before and after a 12-h incubation by liquid-chromatography-coupled mass spectrometry (LC–MS)

Structure (SMILES)	Bacterial Biotransformation
CC(O)(CS(=O)(=O)c1ccc(F)cc1)C(=O)Nc1ccc(C#N)c(C(F)(F)F)c1 (centres undefined) [BICALUTAMIDE]	Compound NOT metabolized
N#Cc1ccc2c(c1)N(CCCN1CCC(O)CC1)c1ccccc1S2 [PERICIAZINE]	Compound metabolized
O=C(O)CCC(=O)O.O=C(O[C@H]1CN2CCC1CC2)N1CCc2ccccc2[C@@H]1c1ccccc1 [SOLIFENACIN SUCCINATE]	Compound NOT metabolized

Assay: The drug is tested on Collinsella intestinalis strain: DSM13280 for biotransformation. The drug concentrations were measured before and after a 12-h incubation by liquid-chromatography-coupled mass spectrometry (LC–MS)
Settings: 2 µM

Structure (SMILES)	Bacterial Biotransformation
CC(O)(CS(=O)(=O)c1ccc(F)cc1)C(=O)Nc1ccc(C#N)c(C(F)(F)F)c1 (centres undefined) [BICALUTAMIDE]	Compound NOT metabolized
N#Cc1ccc2c(c1)N(CCCN1CCC(O)CC1)c1ccccc1S2 [PERICIAZINE]	Compound NOT metabolized
O=C(O)CCC(=O)O.O=C(O[C@H]1CN2CCC1CC2)N1CCc2ccccc2[C@@H]1c1ccccc1 [SOLIFENACIN SUCCINATE]	Compound NOT metabolized

Assay: The drug is tested on Bacteroides dorei strain: DSM17855 for biotransformation. The drug concentrations were measured before and after a 12-h incubation by liquid-chromatography-coupled mass spectrometry (LC–MS)
Settings: phocaeicola dorei, 2 µM

Structure (SMILES)	Bacterial Biotransformation
N#Cc1ccc2c(c1)N(CCCN1CCC(O)CC1)c1ccccc1S2 [PERICIAZINE]	Compound metabolized

Settings: bacteroides eggerthii, 12 h, 2 µM
Description: The drug is tested on Bacteroides eggerthii strain: DSM20697 for biotransformation. The drug concentrations were measured before and after a 12-h incubation by liquid-chromatography-coupled mass spectrometry (LC–MS)

Structure (SMILES)	Bacterial Biotransformation
CC(O)(CS(=O)(=O)c1ccc(F)cc1)C(=O)Nc1ccc(C#N)c(C(F)(F)F)c1 (centres undefined) [BICALUTAMIDE]	Compound NOT metabolized
N#Cc1ccc2c(c1)N(CCCN1CCC(O)CC1)c1ccccc1S2 [PERICIAZINE]	Compound NOT metabolized
O=C(O)CCC(=O)O.O=C(O[C@H]1CN2CCC1CC2)N1CCc2ccccc2[C@@H]1c1ccccc1 [SOLIFENACIN SUCCINATE]	Compound NOT metabolized

Assay: The drug is tested on Bacteroides fragilis strain: HMW610 for biotransformation. The drug concentrations were measured before and after a 12-h incubation by liquid-chromatography-coupled mass spectrometry (LC–MS)
Settings: 2 µM

Structure (SMILES)	Bacterial Biotransformation
CC(O)(CS(=O)(=O)c1ccc(F)cc1)C(=O)Nc1ccc(C#N)c(C(F)(F)F)c1 (centres undefined) [BICALUTAMIDE]	Compound metabolized
N#Cc1ccc2c(c1)N(CCCN1CCC(O)CC1)c1ccccc1S2 [PERICIAZINE]	Compound metabolized
O=C(O)CCC(=O)O.O=C(O[C@H]1CN2CCC1CC2)N1CCc2ccccc2[C@@H]1c1ccccc1 [SOLIFENACIN SUCCINATE]	Compound NOT metabolized
